Data reported in the supplement of paper PMC11281043.

What was measured:
Conditions in all cases: exposure: 6-8 hpf to 5 dpf, scored at 6 dpf
Danio rerio embryo/larva [1] = experiment: BMC general abnormality; higher = less potent
Procedure: (§1)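 Zebrafish embryos (with chorion) were exposed from 6-8 hpf to each PFAS (8-point half-log series, top concentration up to 100 uM, 0.4% DMSO, sealed plates, 26 C; n = 6 embryos per concentration), rinsed at 5 dpf and scored at 6 dpf by two blinded observers for mortality, hatching and malformations. Endpoint scores are the % of living larvae affected (dead larvae excluded; […]). Curves were fitted with tcpl (cutoff 16%), and the BMC is the concentration at a benchmark response of 21.6%.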

Danio rerio embryo/larva [2] = experiment: max % larvae with pigmentation defects across tested concentrations; higher = more toxic
Danio rerio embryo/larva [3] = experiment: max % larvae with edema across tested concentrations; higher = more toxic; extreme values may be limits of the assay
Danio rerio embryo/larva [4] = experiment: max % larvae with tail defects across tested concentrations; higher = more toxic; extreme values may be limits of the assay
Danio rerio embryo/larva [5] = experiment: max % larvae with blood pooling across tested concentrations; higher = more toxic; extreme values may be limits of the assay
Danio rerio embryo/larva [6] = experiment: max % larvae generally abnormal across tested concentrations; higher = more toxic; extreme values may be limits of the assay
Danio rerio embryo/larva [7] = experiment: max % larvae with spinal defects across tested concentrations; higher = more toxic; extreme values may be limits of the assay
Danio rerio embryo/larva [8] = experiment: max % larvae with craniofacial defects across tested concentrations; higher = more toxic; extreme values may be limits of the assay
Danio rerio embryo/larva [9] = experiment: max % larvae with uninflated swim bladder across tested concentrations; higher = more toxic; extreme values may be limits of the assay
Danio rerio embryo/larva [10] = experiment: max % larvae with abnormal position across tested concentrations; higher = more toxic; extreme values may be limits of the assay
Danio rerio embryo/larva [11] = experiment: BMC edema; higher = less potent
Procedure: as §1

Danio rerio embryo/larva [12] = experiment: BMC any abnormality; max tested concentration (log10 uM): 2; higher = less potent
Procedure: as §1

Danio rerio embryo/larva [13] = experiment: max % larvae unhatched across tested concentrations; max tested concentration (log10 uM): 2; higher = more toxic
Danio rerio embryo/larva [14] = experiment: max % larvae with any abnormality across tested concentrations; max tested concentration (log10 uM): 2; higher = more toxic; extreme values may be limits of the assay
Danio rerio embryo/larva [15] = experiment: BMC swim bladder non-inflation; higher = less potent
Procedure: as §1

Danio rerio embryo/larva [16] = experiment: max % larvae dead across tested concentrations; max tested concentration (log10 uM): 2; higher = more toxic; extreme values may be limits of the assay
[17] = max tested concentration (log10 uM): 2
[18] = max tested concentration (log10 uM): 0

Row | SMILES | BMC general abnormality (Danio rerio embryo/larva [1]) [µM] | max % larvae (Danio rerio embryo/larva [2]) [%] | max % larvae (Danio rerio embryo/larva [3]) [%] | max % larvae (Danio rerio embryo/larva [4]) [%] | max % larvae (Danio rerio embryo/larva [5]) [%] | max % larvae generally abnormal across tested concentrations (Danio rerio embryo/larva [6]) [%] | max % larvae (Danio rerio embryo/larva [7]) [%] | max % larvae (Danio rerio embryo/larva [8]) [%] | max % larvae (Danio rerio embryo/larva [9]) [%] | max % larvae (Danio rerio embryo/larva [10]) [%] | BMC edema (Danio rerio embryo/larva [11]; [17]) [µM] | BMC any abnormality (Danio rerio embryo/larva [12]) [µM] | max % larvae unhatched across tested concentrations (Danio rerio embryo/larva [13]) [%] | max % larvae (Danio rerio embryo/larva [14]) [%] | BMC edema (Danio rerio embryo/larva [11]; [18]) [µM] | BMC swim bladder non-inflation (Danio rerio embryo/larva [15]; [18]) [µM] | BMC swim bladder non-inflation (Danio rerio embryo/larva [15]; [17]) [µM] | max % larvae dead across tested concentrations (Danio rerio embryo/larva [16]) [%]
1 | NCC(F)(F)C(F)(F)C(F)(F)C(F)(F)C(F)(F)C(F)(F)F [1H,1H-Perfluoroheptylamine] (max tested concentration (log10 uM): 2) | 79.2 | 0 | 33.3 | 0 | 0 | 33.3 | 0 | 0 | 0 | – | – | – | – | – | – | – | – | –
2 | C=CC(=O)OCCC(F)(F)C(F)(F)C(F)(F)C(F)(F)F [2-(Perfluorobutyl)ethyl acrylate] (max tested concentration (log10 uM): 2) | 74.8 | 0 | 0 | 0 | 0 | 50 | 0 | 0 | 100 | 0 | – | – | – | – | – | – | – | –
3 | OCCC(F)(F)C(F)(F)C(F)(F)C(F)(F)C(F)(F)C(F)(F)F [2-(Perfluorohexyl)ethanol] (max tested concentration (log10 uM): 2) | 3.37 | 0 | 79.5 | 13.6 | 0 | 79.5 | 6.82 | 68.2 | 81.8 | 11.4 | – | – | – | – | – | – | – | –
4 | O=P(O)(O)CCC(F)(F)C(F)(F)C(F)(F)C(F)(F)C(F)(F)C(F)(F)F [2-(Perfluorohexyl)ethylphosphonic acid] | – | – | – | – | – | – | – | – | – | – | 22.5 | 21.9 | 0 | 95.8 | – | – | – | –
5 | NS(=O)(=O)C(F)(F)C(F)(F)C(F)(F)C(F)(F)C(F)(F)C(F)(F)C(F)(F)C(F)(F)F [Perfluorooctanesulfonamide] | – | – | – | – | – | – | – | – | – | – | – | 0.261 | 0 | 100 | 0.563 | 0.313 | – | –
6 | Cc1ccc(S(=O)(=O)OCC(F)(F)C(F)(F)C(F)(F)C(F)(F)C(F)(F)C(F)F)cc1 [1H,1H,7H-Perfluoroheptyl 4-methylbenzenesulfonate] | – | – | – | – | – | – | – | – | – | – | – | 20.3 | 0 | 75 | – | – | 8.97 | 0
7 | O=C(Cl)C(F)(F)C(F)(F)C(F)(F)C(F)(F)C(F)(F)C(F)(F)C(F)(F)C(F)(F)F [Perfluorononanoyl chloride] | – | – | – | – | – | – | – | – | – | – | – | 25 | 0 | 100 | – | – | – | 100
8 | C=CC(=O)OCCC(F)(F)C(F)(F)C(F)(F)C(F)(F)F [2-(Perfluorobutyl)ethyl acrylate] | – | – | – | – | – | – | – | – | – | – | – | 26.3 | 0 | 100 | – | – | 75.7 | –
9 | O=C(O)C(F)(F)OC(F)(F)C(F)(F)OC(F)(F)C(F)(F)OC(F)(F)C(F)(F)C(F)(F)C(F)(F)F [Perfluoro-3,6,9-trioxatridecanoic acid] (max tested concentration (log10 uM): 1) | 1.51 | 0 | 50 | 0 | 16.7 | 50 | 0 | 0 | 100 | 50 | – | – | – | – | – | – | – | –
10 | C=C(C)C(=O)OCC(F)(F)C(F)(F)C(F)(F)C(F)F [1H,1H,5H-Perfluoropentyl methacrylate] | – | – | – | – | – | – | – | – | – | – | – | 27.9 | 0 | 66.7 | – | – | – | 66.7
11 | CNS(=O)(=O)C(F)(F)C(F)(F)C(F)(F)C(F)(F)C(F)(F)C(F)(F)C(F)(F)C(F)(F)F [N-Methylperfluorooctanesulfonamide] | – | – | – | – | – | – | – | – | – | – | 20.1 | 0.702 | 0 | 95.8 | – | – | 0.439 | –
12 | OCCCC(F)(F)C(F)(F)C(F)(F)C(F)(F)C(F)(F)C(F)(F)C(F)(F)F [7:3 Fluorotelomer alcohol] | – | – | – | – | – | – | – | – | – | – | – | 38.3 | 0 | 45.8 | – | – | 99 | –
13 | O=S(=O)(O)C(F)(F)C(F)(F)C(F)(F)C(F)(F)C(F)(F)C(F)(F)F [Potassium perfluorohexanesulfonate] | – | – | – | – | – | – | – | – | – | – | – | 31.3 | 0 | 90.9 | – | – | – | –
14 | O=C(O)CCC(F)(F)C(F)(F)C(F)(F)C(F)(F)C(F)(F)F [2H,2H,3H,3H-Perfluorooctanoic acid] (max tested concentration (log10 uM): 1.47712) | 9.38 | 0 | 100 | 25 | 100 | 100 | 12.5 | 100 | 100 | 25 | – | – | – | – | – | – | – | –
15 | OCCCC(F)(F)C(F)(F)C(F)(F)C(F)(F)C(F)(F)C(F)(F)C(F)(F)F [7:3 Fluorotelomer alcohol] (max tested concentration (log10 uM): 2) | 44.8 | 0 | 19.4 | 0 | 16.7 | 22.2 | 0 | 11.1 | 22.2 | 0 | – | – | – | – | – | – | – | –
16 | O=C(O)C(F)(F)C(F)(F)C(F)(F)C(F)(F)C(F)(F)C(F)(F)C(F)(F)C(F)(F)C(F)(F)C(F)(F)F [Perfluoroundecanoic acid] (max tested concentration (log10 uM): 0.477121) | 2.74 | 0 | 25 | 12.5 | 8.33 | 25 | 8.33 | 16.7 | 16.7 | 8.33 | – | – | – | – | – | – | – | –
17 | O=C(O)C(F)(F)C(F)(F)C(F)(F)C(F)(F)C(F)(F)C(F)(F)C(F)(F)C(F)(F)C(F)(F)F [Perfluorodecanoic acid] (max tested concentration (log10 uM): 1.47712) | 11.2 | 0 | 50 | 0 | 0 | 50 | 0 | 0 | 100 | 0 | – | – | – | – | – | – | – | –
18 | C=CC(=O)OCC(F)(F)C(F)(F)C(F)(F)C(F)(F)COC(=O)C=C [1H,1H,6H,6H-Perfluorohexane-1,6-diol diacrylate] (max tested concentration (log10 uM): 1) | 7.57 | 0 | 25 | 0 | 0 | 25 | 0 | 8.33 | 50 | 4.17 | – | – | – | – | – | – | – | –
19 | O=C(Cl)C(F)(F)C(F)(F)C(F)(F)C(F)(F)C(F)(F)C(F)(F)C(F)(F)C(F)(F)F [Perfluorononanoyl chloride] (max tested concentration (log10 uM): 1.47712) | 13.1 | 0 | 16.7 | 0 | 16.7 | 29.2 | 0 | 0 | 50 | 4.17 | – | – | – | – | – | – | – | –
20 | O=P(O)(O)CCC(F)(F)C(F)(F)C(F)(F)C(F)(F)C(F)(F)C(F)(F)C(F)(F)C(F)(F)F [((Perfluorooctyl)ethyl)phosphonic acid] (max tested concentration (log10 uM): 2) | 1.31 | 0 | 50 | 5 | 0 | 60 | 0 | 20 | 100 | 50 | – | – | – | – | – | – | – | –
21 | O=C(O)CCC(F)(F)C(F)(F)C(F)(F)F [3:3 Fluorotelomer carboxylic acid] | – | – | – | – | – | – | – | – | – | – | – | 87.8 | 0 | 25 | – | – | – | 0
22 | OCC(F)(F)C(F)(F)C(F)(F)C(F)(F)C(F)(F)C(F)(F)C(F)(F)C(F)(F)CO [1H,1H,10H,10H-Perfluorodecane-1,10-diol] (max tested concentration (log10 uM): 1) | 3.79 | 0 | 66.7 | 8.33 | 33.3 | 75 | 4.17 | 83.3 | 83.3 | 4.17 | – | – | – | – | – | – | – | –
23 | CC(C)(C)C(=O)CC(=O)C(F)(F)C(F)(F)C(F)(F)F [(Heptafluorobutanoyl)pivaloylmethane] (max tested concentration (log10 uM): 2) | 25.6 | 0 | 66.7 | 0 | 20 | 66.7 | 0 | 83.3 | 100 | 25 | – | – | – | – | – | – | – | –
24 | FC(F)C(F)(F)COCC1CO1 (stereo unspecified) [((2,2,3,3-Tetrafluoropropoxy)methyl)oxirane] | – | – | – | – | – | – | – | – | – | – | 32.6 | 26.5 | 0 | 91.7 | – | – | 27.7 | 0
25 | O=C(O)C(F)(F)C(F)(F)C(F)(F)C(F)(F)C(F)(F)C(F)(F)C(F)(F)C(F)(F)C(F)(F)C(F)F [11-H-Perfluoroundecanoic acid] (max tested concentration (log10 uM): 1.47712) | 12.6 | 0 | 100 | 100 | 100 | 100 | 0 | 100 | 100 | 50 | – | – | – | – | – | – | – | –
26 | O=C(O)CCC(F)(F)C(F)(F)C(F)(F)C(F)(F)C(F)(F)C(F)(F)F [3-(Perfluorohexyl)propanoic acid] (max tested concentration (log10 uM): 1) | 9.01 | 0 | 25 | 12.5 | 0 | 25 | 0 | 16.7 | 16.7 | 4.17 | – | – | – | – | – | – | – | –
27 | FC(F)(F)C(F)(F)C(F)(F)C(F)(F)C(F)(F)CCI [1-Iodo-1H,1H,2H,2H-perfluoroheptane] | – | – | – | – | – | – | – | – | – | – | 31.5 | 29.3 | 0 | 72.9 | – | – | 31.5 | –
28 | FC(F)(F)C(F)(F)C(F)(F)C(F)(F)C(F)(F)C(F)(F)C(F)(F)I [1-Iodopentadecafluoroheptane] | – | – | – | – | – | – | – | – | – | – | – | 10.9 | 0 | 83.3 | – | – | 56.7 | 16.7
29 | NCC(F)(F)C(F)(F)C(F)(F)C(F)(F)C(F)(F)C(F)(F)F [1H,1H-Perfluoroheptylamine] | – | – | – | – | – | – | – | – | – | – | 79.2 | 79.2 | 0 | 33.3 | – | – | – | 0
30 | OCC(F)(F)C(F)(F)C(F)(F)C(F)(F)C(F)(F)C(F)(F)F [6:1 Fluorotelomer alcohol] | – | – | – | – | – | – | – | – | – | – | 94.1 | 73.3 | 0 | 75 | – | – | – | –
